Data: patent publication US8614203B2, “Methods for the treatment of a central nervous system injury via a tapered administration protocol” (Emory University, priority 2005, dated 2013)

How the values were obtained:
Assay type in all cases: in vivo, Sprague-Dawley rats
[1] = tested on: medial frontal cortex injury; experiment: Example 3: lesion reconstruction (lesion volume); settings: tapered withdrawal, injured (TWI)
Protocol: Male Sprague-Dawley rats received either medial frontal cortex injury or sham surgery. Injections were given 1 and 6 hours post-injury, and every 24 hours for 7 days. Treatment groups (n=8) encompassed injured (I) and sham (S) acute withdrawal (AW), tapered withdrawal (TW) and vehicle (V) treatments. TW injections were progressively halved over the final two treatments. Behavioral testing was conducted post-surgery, mid- and post-withdrawal. Activity boxes were used to investigate vertical movements and exploration: Sensory neglect and anxiety behaviors were also analyzed. Brain harvesting was performed at 8 days or 3 weeks post-injury. Perfused tissue sections were analyzed for lesion volume and immunohistochemical response. Fresh brain tissue was flash frozen in chilled 2-methyl butane, and then homogenized for Western blot analysis.

p53 = experiment: Example 4: Western blotting densitometry, p53; settings: all progesterone-treated animals (AW and TW); two weeks post-withdrawal
Excerpt: (§1) 60 male Sprague-Dawley rats weighing 290-310 g at the time of injury were used in this experiment. Food and water were provided ad libidum before and after surgery. Animals were handled and weighed daily from their arrival, seven days pre-surgery, to brain extraction three weeks post-surgery. Animals were handled in squads of 12, with n=10 per experimental condition. All animal procedures were approved by the Emory University Animal Care and Use Committee, Protocol #131-2002.
Isofluorane anesthesia was induced for four minutes and 45 seconds at 5% and maintained at 2.5%. Normal body temperature was maintained with a surgical heating pad placed beneath the sterile dressings. The scalp incision area was shaved and sterilized with iodine and isopropanol. A midline incision was made along the scalp and the fascia cleared to expose the surface of the skull. Medial, lateral, and dorsal stereotaxic coordinates were determined at bregma, and a 5-7 mm diameter bilateral craniotomy was performed mid-sagitally, 3 mm anterior to bregma. […] Sutures were used to close the incision after bleeding ceased. […]
(§2) Brains for protein analysis were sectioned into the immediate area of the lesion and snap frozen in 2-methyl-butane chilled on dry ice. […] The amount of brain homogenate needed to standardize samples to 2 μg/μL for Western blotting was calculated from the results of these assays. […]

[2] = tested on: bilateral contusions of the medial prefrontal cortex; experiment: Example 1: bilateral sensory neglect (BSN) task after TBI; settings: 4 mg/kg, 3 days (LP3); 6 and 20 days post injury
Protocol: Male Sprague-Dawley rats (300 g) were housed individually in wire cages and kept on a reverse light-dark cycle (0800-2000 h). […] All procedures involving animals conformed to guidelines set forth in the Guide for the Care and Use of Laboratory Animals (U.S. Department of Health and Human Services, Pub no. 85-23, 1985) and were approved by the Emory University Institutional Animal Care and Use Committee.
Bilateral contusions of the medial prefrontal cortex were created by a pneumatic impactor device as previously described. Briefly, rats were given anesthetized with ketamine/xylazine (90 mg/kg; 10 mg/kg) and placed in a stereotaxic apparatus. […]
Experienced individuals who were blind to treatment conditions of the study conducted all histological and behavioral analyses. All data were tested for normality and homoschedasticity before being analyzed by parametric analysis of variance (ANOVA). MWM results were analyzed using separate mixed-factorial (4 groups×5 days) analysis of variance (ANOVA) on each of the two 5-day testing periods (acquisition and retention respectively). Results of the BSN task were analyzed using the mixed-factorial ANOVA (4 groups×2 post-injury trials). […]
Measures of attentional abilities, using a bilateral sensory neglect (BSN) task, were recorded one day prior to surgery (baseline) and on postsurgical days 6 and 20. […]

HSP70 = experiment: Example 4: Western blotting densitometry, HSP70
Excerpt: as §1
Isofluorane anesthesia was induced for four minutes and 45 seconds at 5% and maintained at 2.5%. Normal body temperature was maintained with a surgical heating pad placed beneath the sterile dressings. The scalp incision area was shaved and sterilized with iodine and isopropanol. A midline incision was made along the scalp and the fascia cleared to expose the surface of the skull. Medial, lateral, and dorsal stereotaxic coordinates were determined at bregma, and a 5-7 mm diameter bilateral craniotomy was performed mid-sagitally, 3 mm anterior to bregma. […] Sutures were used to close the incision after bleeding ceased. Animals were placed in individual heated, clean recovery cages until they awakened, and were returned to clean individual home cages with accessible moistened food pellets. Sham animals were anesthetized, and an incision was made at the top of the head. The fascia was cleared to expose bregma, then the incision was sutured closed. Sham surgeries were matched to lesion surgeries for all experimental conditions.
Sham (S) and lesion (L) animals were randomly assigned to one of three treatment groups: vehicle (VS, VL), acute withdrawal (AWS, AWL), and tapered withdrawal (TWS, TWL). […] Tapering was induced as halved dosages over the last two days of treatment. Dilutions for TW treatments were made with HBC stock. […]
as §2

CC(=O)[C@H]1CC[C@H]2[C@@H]3CCC4=CC(=O)CC[C@]4(C)[C@H]3CC[C@]12C [progesterone, pregn-4-ene-3,20-dione]
lesion volume [1]: smallest lesion volume | p53 levels (long-term marker of apoptosis) (p53): p53 levels indistinguishable from vehicle shams | BSN task performance (latency to remove adhesive stimuli) [2]: impaired on this task compared to control animals at both 6 and 20 days post injury | HSP70 levels (HSP70; all progesterone treatment vs vehicle-treated animals, three weeks post-injury): increased HSP70 compared to vehicle-treated animals | HSP70 levels (HSP70; sham animals (AWS, TWS, VS)): Sham animals did not display any differences between treatment groups | HSP70 levels (HSP70; tapered withdrawal, lesion (TWL) vs VL and AWL, three weeks post-injury): increased in TWL animals
